For experiment [1], the target named is T1, h-EP2 (Homo sapiens, UniProt P43116). Briefly: Prostaglandin EP2 receptor binding assay (3H-PGE2 SPA). The following applies: EP2 receptor membranes, 20 nM 3H-PGE2, pH 6.0, 2 hrs room temperature. As to the method:
Compounds of the invention were tested in an EP2 receptor binding assay of the following protocol. As referred to herein, the term an “EP2 receptor binding assay” designates the following protocol.
(§1) A mixture containing 20 μg of EP2 receptor membranes, 0.5 mg of wheat germ agglutinin coated PVT-SPA beads, with or without compound of the invention (25 μl per well) or 10 μM of cold PGE2 at 1% DMSO and 20 nM ^3H-PGE2 in assay buffer containing 25 mM MES, 10 mM MgCl2, 1 mM EDTA, pH 6.0 are incubated in Corning 3600 plates on a plate shaker for 2 hrs at room temperature. ^3H-PGE2 binding is evaluated by counting the plates on the top count using the ^3H SPA dpm2 program. The percentage of binding and Ki value for inhibitors are calculated based on the one site competition parameter using the Graphpad® prism program.

The target in experiment [2] is T2, h-EP4 (Homo sapiens, UniProt P35408). Briefly: EP4 receptor binding assay (3H-PGE2 SPA). The following applies: EP4 receptor membranes, 20 nM 3H-PGE2, pH 6.0, 2 hrs room temperature. On the procedure: Compounds of the invention were tested in an EP4 receptor binding assay of the following protocol.
T2 sequence (P35408 whole entry): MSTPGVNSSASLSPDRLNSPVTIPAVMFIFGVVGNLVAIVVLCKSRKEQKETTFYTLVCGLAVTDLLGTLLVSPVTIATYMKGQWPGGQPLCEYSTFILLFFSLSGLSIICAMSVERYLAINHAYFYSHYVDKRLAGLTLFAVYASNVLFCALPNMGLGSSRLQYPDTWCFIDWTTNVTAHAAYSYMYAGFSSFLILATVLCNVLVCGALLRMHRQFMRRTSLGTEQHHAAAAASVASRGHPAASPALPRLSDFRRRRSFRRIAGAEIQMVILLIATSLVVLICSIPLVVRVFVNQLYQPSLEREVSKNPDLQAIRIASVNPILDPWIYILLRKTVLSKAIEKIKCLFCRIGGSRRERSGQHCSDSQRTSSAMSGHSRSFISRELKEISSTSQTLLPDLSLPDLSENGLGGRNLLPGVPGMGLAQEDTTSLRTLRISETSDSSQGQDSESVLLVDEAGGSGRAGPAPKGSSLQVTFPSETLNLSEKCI
as §1, with “EP4” for “EP2”, “compounds” for “compound”

For experiment [3], the target named is T1, h-EP2. As to the kind of experiment: EP2 total cAMP assay in HEK293-EBNA cells transfected with pCEP4-hEP2. In kind it is cell-based. The following applies: 1 hour 37° C. On the procedure: Therefore, the compounds of the invention are tested for their ability in modulating cAMP levels in cells over-expressing EP2 or EP4 (Example 25 below) receptors.
(§2) Compounds of the invention are tested in a total cAMP assay as follows. HEK293-EBNA cells transfected with pCEP4-hEP2 receptors are seeded in 96 well opaque plate (Costar #3917) at 4×10^4 cells per well in 100 μl of culture medium (D-MEM/F12 supplemented with 10% FBS, […] L-glutamine, and 250 μg/ml of hygromycin; all from Gibco BRL) and incubated at 37° C. After overnight incubation, the medium is removed from each well and replaced with 45 μl of assay medium consisted of phenol red free D-MEM/F-12, 0.1% BSA (Gibco BRL) and 0.1 mM 3-isobutyl-1-methyl-xanthine (Sigma). After 15 minutes of incubation at 37° C., 16-16-dimethyl PGE-2 or compounds at desired concentrations in 20 μl of assay medium are added to cells and further incubated at 37° C. for 1 hour. Total cAMP (intra- and extra-cellular) is measured by using a cAMP-screen ELISA System (Tropix, #CS1000).
(Changes in cAMP serve as a functional read-out for many G protein-coupled receptors.)

For experiment [4], the target named is T2, h-EP4. As to the kind of experiment: EP4 total cAMP assay in HEK293-EBNA cells transfected with hEP4. The format is cell-based. Particulars: 1 hour 37° C. On the procedure: as §2, with “pCFP4-hEP4” for “pCEP4-hEP2”
In experiment [5] the test system is hepatitis B viral replication. Particulars: oral administration, chronic hepatitis B patients; cited from earlier work.

T1 sequence (P43116 whole entry): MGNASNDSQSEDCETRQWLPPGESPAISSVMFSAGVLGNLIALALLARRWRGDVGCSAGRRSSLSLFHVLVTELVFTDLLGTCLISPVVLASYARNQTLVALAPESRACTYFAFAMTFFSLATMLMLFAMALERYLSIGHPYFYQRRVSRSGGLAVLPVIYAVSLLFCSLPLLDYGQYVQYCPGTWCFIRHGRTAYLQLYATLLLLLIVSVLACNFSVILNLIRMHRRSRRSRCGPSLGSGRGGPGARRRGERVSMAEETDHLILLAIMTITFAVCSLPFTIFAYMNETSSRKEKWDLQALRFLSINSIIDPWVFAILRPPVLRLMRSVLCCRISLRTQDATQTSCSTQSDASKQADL

In the case of `CCCCCC(O)CCNN(CCc1ccc(C(=O)O)cc1)C(C)=O` (stereo not drawn) [Example 2, 4-{2-[1-acetyl-2-(3-hydroxyoctyl)hydrazino]ethyl}benzoic acid], the Ki on h-EP2 [1] amounted to 32900 nM; at h-EP4 [2] it was 400 nM. At h-EP2 [3], the EC50 worked out at 6030 nM.

With `CC(=O)N(CCc1ccc(C(=O)O)cc1)NCCC(O)Cc1cccc(C(F)(F)F)c1` (stereo not drawn) [Example 4, 4-[2-(1-acetyl-2-{3hydroxy-4-[3-(trifluoromethyl)phenyl]butyl}hydrazino)ethyl]benzoic acid], the Ki on h-EP2 [1] is 4450 nM; at h-EP4 [2], 530 nM. The molecule further returned an EC50 at h-EP4 [4] of 0.4 nM.

For the molecule `CC(C)C(=O)N(CCc1ccc(C(=O)O)cc1)NCCC(O)Cc1cccc(C(F)(F)F)c1` (stereo not drawn) [Example 6, 4-[2-(2-{3-hydroxy-4-[3-(trifluoromethyl)phenyl]butyl}-1-isobutyryl hydrazino)ethyl]benzoic acid], the Ki on h-EP4 [2] is 332 nM.

Turning to `CC(=O)N(CCc1ccc(C(=O)O)cc1)NCCC(O)Cc1cccc(C#Cc2ccccc2)c1` (stereo not drawn) [Example 7, 4-[2-(1-acetyl-2-{3-hydroxy-4-[3-(phenylethynyl)phenyl]butyl}hydrazino)ethyl]benzoic acid], the results for the Ki on h-EP2 [1] and at h-EP4 [2] were 4210 nM and 45 nM, respectively. Also, the EC50 on h-EP4 [4] is 0.15 nM.

In turn, `CC(=O)N(CCc1ccc(C(=O)O)cc1)NCCC(O)Cc1cccc(-c2ccccc2)c1` (stereo not drawn) [Example 8, 4-(2-{1-acetyl-2-[4-(1,1′-biphenyl-3-yl)-3-hydroxybutyl]hydrazino}ethyl)benzoic acid] gave a Ki on h-EP4 [2] of 115 nM.

`CC(=O)N(CCc1ccc(C(=O)O)cc1)NCCC(O)Cc1cccc(Br)c1` (stereo not drawn) [Example 9, 4-(2-{1-acetyl-2-[4-(3-bromophenyl)-3-hydroxybutyl]hydrazino}ethyl) benzoic acid] came in with a Ki at h-EP4 [2] of 149 nM.

`CC(=O)N(CCc1ccc(C(=O)O)cc1)NCCC(O)Cc1cccc(I)c1` (stereo not drawn) [Example 10, 4-(2-{1-acetyl-2-[3-hydroxy-4-(3-iodophenyl)butyl]hydrazino}ethyl)benzoic acid]: the affinity at h-EP4 [2], expressed as Ki, was 97 nM.

`C#Cc1cccc(CC(O)CCNN(CCc2ccc(C(=O)O)cc2)C(C)=O)c1` (stereo not drawn) [Example 16, 4-(2-{1-acetyl-2-[4-(3ethynylphenyl)-3-hydroxybutyl]hydrazino}ethyl) benzoic acid] came in with a Ki on h-EP4 [2] of 131 nM.

For `CCCCC[C@H](O)/C=C/[C@H]1[C@H](O)CC(=O)[C@@H]1C/C=C\CCCC(=O)O` [PGE2, Prostaglandin E2], the “patients with sustained loss of viral replication” value in experiment [5] was 47%.

Broadly, the Ki is a measure of affinity in units of concentration, obtained from inhibition or displacement. A low value points to higher affinity. Usually EC50 stands for the concentration needed to bring the measured effect to its halfway point.

The record behind these values is patent publication US7465755B2, “Hydrazide derivatives as prostaglandin receptors modulators” (Laboratoires Serono SA, priority 2003, dated 2008).
